Consider ten compounds from patent US12668600B2 (Kumquat Biosciences Inc., priority 2023, dated 2026).

One may read the IC50 as the concentration at which inhibition is half-maximal.

Common to all, as to format: biochemical
The target in one assay is T1, KRAS G12S (Homo sapiens, UniProt P01116, G12S).
T1 construct: made in house; host or cells: E. coli, e.g. BL21 (DE3)
As to the kind of experiment: HTRF KRAS-SOS1 interaction assay, KRAS G12S. The settings on record: binned ≤2 μM / >2 μM, read-out: Inhibition of KRAS G12S (IC50). The essentials: (§1)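 Inhibition of the KRAS–SOS1 interaction was measured by HTRF (ex 337, em 620/665 nm) after ≥~10 min incubation. Donor: anti-GST-Eu on GST-KRAS; acceptor: anti-6His-XL665 on His-hSOS1, in HEPES pH 7.4 buffer with DTT, BSA and Igepal. Compounds in duplicate at 0.01–10 μM; IC50 from emission ratio.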
Background: Time-resolved FRET reads energy transfer from a long-lived donor to a nearby acceptor.

The target of the next assay is T2, KRAS WT (Homo sapiens, UniProt P01116).
T2 construct: made in house; host or cells: E. coli, e.g. BL21 (DE3)
As to the kind of experiment: HTRF KRAS-SOS1 interaction assay, wildtype KRAS. The settings on record: binned ≤2 μM / >2 μM, read-out: Inhibition of KRAS WT (IC50). In outline: as §1

A further assay deals with T3, KRAS G12D (Homo sapiens, UniProt P01116, G12D).
T3 construct: made in house; host or cells: E. coli, e.g. BL21 (DE3)
As to the kind of experiment: HTRF KRAS-SOS1 interaction assay, KRAS G12D. The conditions noted are these: binned ≤2 μM / >2 μM, read-out: Inhibition of KRAS G12D (IC50). In outline:
as §1

A further assay concerns the target T4, KRAS G12V (Homo sapiens, UniProt P01116, G12V).
T4 construct: made in house; host or cells: E. coli, e.g. BL21 (DE3)
The assay is described as follows: HTRF KRAS-SOS1 interaction assay, KRAS G12V. The settings on record: binned ≤2 μM / >2 μM, read-out: Inhibition of KRAS G12V (IC50). The essentials:
as §1

T4 sequence (P01116 1-188 isoform P01116-2 G12V): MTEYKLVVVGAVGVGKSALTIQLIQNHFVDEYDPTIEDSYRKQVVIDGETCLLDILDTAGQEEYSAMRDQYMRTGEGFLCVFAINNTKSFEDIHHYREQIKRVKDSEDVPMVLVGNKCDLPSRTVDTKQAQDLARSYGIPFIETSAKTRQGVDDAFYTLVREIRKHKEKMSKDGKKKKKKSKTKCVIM
T3 sequence (P01116 1-188 isoform P01116-2 G12D): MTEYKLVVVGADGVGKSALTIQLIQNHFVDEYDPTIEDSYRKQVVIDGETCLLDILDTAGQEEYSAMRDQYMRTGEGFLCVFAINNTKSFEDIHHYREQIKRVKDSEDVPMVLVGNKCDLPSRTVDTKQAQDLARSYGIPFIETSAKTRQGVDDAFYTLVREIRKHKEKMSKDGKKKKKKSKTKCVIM
T1 sequence (P01116 1-188 isoform P01116-2 G12S): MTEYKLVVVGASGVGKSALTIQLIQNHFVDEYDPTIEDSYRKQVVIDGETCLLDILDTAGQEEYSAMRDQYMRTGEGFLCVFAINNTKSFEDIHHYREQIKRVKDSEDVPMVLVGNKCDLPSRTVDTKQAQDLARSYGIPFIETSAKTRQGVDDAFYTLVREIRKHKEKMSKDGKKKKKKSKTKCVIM
T2 sequence (P01116 1-188 isoform P01116-2): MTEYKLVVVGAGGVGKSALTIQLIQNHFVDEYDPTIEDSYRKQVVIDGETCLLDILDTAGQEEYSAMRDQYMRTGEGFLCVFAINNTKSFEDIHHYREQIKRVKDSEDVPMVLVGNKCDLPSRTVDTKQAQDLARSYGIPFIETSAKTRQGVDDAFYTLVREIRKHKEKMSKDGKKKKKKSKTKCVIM

As to `C[C@H](c1cc(F)cnc1N)N1CCOc2c(C(F)(F)F)c(-c3ccc(F)c4sc(N)c(C#N)c34)c(F)c3nc(OCC4(CN5CCC6(CC5)CC6(F)F)CC4)nc1c23` [Compound 841, 2-amino-4-(4-((R)-1-(2-amino-5-fluoropyridin-3-yl)ethyl)-2-((1-((1,1-difluoro-6-azaspiro[2.5]octan-6-yl)methyl)cyclopropyl)methoxy)-10-fluoro-8-(trifluoromethyl)-5,6-dihydro-4H-[1,4]oxazepino[5,6,7-de]quinazolin-9-yl)-7-fluorobenzo[b]thiophene-3-carbonitrile], the IC50 on KRAS G12S, on KRAS WT, at KRAS G12D and at KRAS G12V was at most 2 µM in each case.
Take `N#Cc1c(N)sc2c(F)ccc(-c3c(Cl)c4c5c(nc(OC[C@@]67CCCN6C[C@H](F)C7)nc5c3F)N([C@H](C/C=C\C(F)(F)F)c3cccnc3N)CCO4)c12` [Compound 845, 2-amino-4-(4-((R,Z)-1-(2-aminopyridin-3-yl)-5,5,5-trifluoropent-3-en-1-yl)-8-chloro-10-fluoro-2-(((2R,7aS)-2-fluorotetrahydro-1H-pyrrolizin-7a(5H)-yl)methoxy)-5,6-dihydro-4H-[1,4]oxazepino[5,6,7-de]quinazolin-9-yl)-7-fluorobenzo[b]thiophene-3-carbonitrile]: the IC50 at KRAS G12S, at KRAS WT, at KRAS G12D and at KRAS G12V was at most 2 µM throughout.
For `C[C@H](c1cccnc1N)N1CCOc2c(Cl)c(-c3ccc(F)c4sc(N)c(C#N)c34)c(F)c3nc(OC[C@@]45CCCN4C[C@H](F)C5)nc1c23` [Compound 850, 2-amino-4-(4-(1-(2-aminopyridin-3-yl)ethyl)-8-chloro-10-fluoro-2-(((2R,7aS)-2-fluorotetrahydro-1H-pyrrolizin-7a (5H)-yl)methoxy)-5,6-dihydro-4H-[1,4]oxazepino[5,6,7-de]quinazolin-9-yl)-7-fluorobenzo[b]thiophene-3-carbonitrile], the concentration for half-maximal inhibition (IC50) on KRAS G12S, at KRAS WT, on KRAS G12D and at KRAS G12V was at most 2 µM each time.
Regarding `C[C@H](c1ccc(C#N)nc1N)N1CCOc2c(Cl)c(-c3ccc(F)c4sc(N)c(C#N)c34)c(F)c3nc(OC[C@@]45CCCN4C[C@H](F)C5)nc1c23` [Compound 851, 6-amino-5-((1R)-1-(9-(2-amino-3-cyano-7-fluorobenzo[b]thiophen-4-yl)-8-chloro-10-fluoro-2-(((2R,7aS)-2-fluorotetrahydro-1H-pyrrolizin-7a(5H)-yl)methoxy)-5,6-dihydro-4H-[1,4]oxazepino[5,6,7-de]quinazolin-4-yl)ethyl)picolinonitrile], the IC50 on KRAS G12S, on KRAS WT, at KRAS G12D and at KRAS G12V was at most 2 µM each time.
With `C[C@H](c1cccnc1N)N1CCOc2c(C(F)(F)F)c(-c3ccc(F)c4sc(N)c(C#N)c34)c(F)c3nc(OC[C@@]45CCCN4CC(C#N)C5)nc1c23` (stereo partly drawn) [Compound 852, (7aS)-7a-(((9-(2-amino-3-cyano-7-fluorobenzo[b]thiophen-4-yl)-4-((R)-1-(2-aminopyridin-3-yl)ethyl)-10-fluoro-8-(trifluoromethyl)-5,6-dihydro-4H-[1,4]oxazepino[5,6,7-de]quinazolin-2-yl)oxy)methyl)hexahydro-1H-pyrrolizine-2-carbonitrile], the IC50 on KRAS G12S was above 2 µM; on KRAS WT, at most 2 µM; on KRAS G12D, above 2 µM; at KRAS G12V, above 2 µM.
Consider `CCO/N=C(\C)CCC[C@H](c1cccnc1N)N1CCOc2c(C(F)(F)F)c(-c3ccc(F)c4sc(N)c(C#N)c34)c(F)c3nc(OC[C@@]45CCCN4C[C@H](F)C5)nc1c23` [Compound 854, 2-amino-4-(4-((R,E)-1-(2-aminopyridin-3-yl)-5-(ethoxyimino)hexyl)-10-fluoro-2-(((2R,7aS)-2-fluorotetrahydro-1H-pyrrolizin-7a(5H)-yl)methoxy)-8-(trifluoromethyl)-5,6-dihydro-4H-[1,4]oxazepino[5,6,7-de]quinazolin-9-yl)-7-fluorobenzo[b]thiophene-3-carbonitrile], for which the IC50 on KRAS G12S, at KRAS WT, on KRAS G12D and at KRAS G12V was at most 2 µM in each case.
As for `N#Cc1c(N)sc2c(F)ccc(-c3c(C(F)(F)F)c4c5c(nc(OC[C@@]67CCCN6C[C@@]6(CC6(F)F)C7)nc5c3F)N([C@H](CC3CCOCC3)c3cccnc3N)CCO4)c12` [Compound 855, 2-amino-4-(4-((R)-1-(2-aminopyridin-3-yl)-2-(tetrahydro-2H-pyran-4-yl)ethyl)-2-(((1S,7a′S)-2,2-difluorodihydro-1′H,3′H-spiro[cyclopropane-1,2′-pyrrolizin]-7a′(5′H)-yl)methoxy)-10-fluoro-8-(trifluoromethyl)-5,6-dihydro-4H-[1,4]oxazepino[5,6,7-de]quinazolin-9-yl)-7-fluorobenzo[b]thiophene-3-carbonitrile], the IC50 at KRAS G12S, on KRAS WT, at KRAS G12D and at KRAS G12V was at most 2 µM throughout.
With `C[C@H](c1cccnc1N)N1CCOc2c(C(F)(F)F)c(-c3ccc(F)c4sc(N)c(C#N)c34)c(F)c3nc(OC[C@@]45CCCN4CC(=C(F)F)C5)nc1c23` [Compound 856, 2-amino-4-(4-((R)-1-(2-aminopyridin-3-yl)ethyl)-2-(((S)-2-(difluoromethylene)tetrahydro-1H-pyrrolizin-7a(5H)-yl)methoxy)-10-fluoro-8-(trifluoromethyl)-5,6-dihydro-4H-[1,4]oxazepino[5,6,7-de]quinazolin-9-yl)-7-fluorobenzo[b]thiophene-3-carbonitrile], the half-inhibitory concentration (IC50) on KRAS G12S, at KRAS WT, at KRAS G12D and at KRAS G12V was at most 2 µM throughout.
As for `C#CC(F)(F)[C@H](c1cccnc1N)N1CCOc2c(Cl)c(-c3ccc(F)c4sc(N)c(C#N)c34)c(F)c3nc(OC[C@@]45CCCN4C[C@H](F)C5)nc1c23` [Compound 867, 2-amino-4-(4-((S)-1-(2-aminopyridin-3-yl)-2,2-difluorobut-3-yn-1-yl)-8-chloro-10-fluoro-2-(((2R,7aS)-2-fluorotetrahydro-1H-pyrrolizin-7a(5H)-yl)methoxy)-5,6-dihydro-4H-[1,4]oxazepino[5,6,7-de]quinazolin-9-yl)-7-fluorobenzo[b]thiophene-3-carbonitrile], the concentration for half-maximal inhibition (IC50) at KRAS G12S, on KRAS WT, at KRAS G12D and at KRAS G12V was at most 2 µM throughout.
For `C[C@H](c1cc(C(F)(F)F)cnc1N)N1CCOc2c(Cl)c(-c3ccc(F)c4sc(N)c(C#N)c34)c(F)c3nc(OC[C@@]45CCCN4C[C@H](F)C5)nc1c23` [Compound 869, 2-amino-4-(4-((R)-1-(2-amino-5-(trifluoromethyl)pyridin-3-yl)ethyl)-8-chloro-10-fluoro-2-(((2R,7aS)-2-fluorotetrahydro-1H-pyrrolizin-7a(5H)-yl)methoxy)-5,6-dihydro-4H-[1,4]oxazepino[5,6,7-de]quinazolin-9-yl)-7-fluorobenzo[b]thiophene-3-carbonitrile], the IC50 at KRAS G12S, on KRAS WT, at KRAS G12D and on KRAS G12V was at most 2 µM each time.
